Earlier results in publication PMC12181400, “Leveraging viral genome sequences and machine learning models for identification of potentially selective antiviral agents” (Communications Chemistry, 2025).
Structures can show the parent of a compound that is named as a salt. Where two headings read alike, the source gives them in different places.

Legend:
Conditions in all cases: cited from earlier work
[1] = system: cell viability (tox21-ap1-agonist-p1)
[2] = system: cell viability (tox21-ar-mda-kb2-luc-agonist-p3)
[3] = system: cell viability (tox21-ar-mda-kb2-luc-antagonist-p2)
[4] = system: cell viability (tox21-are-bla-p1)
[5] = system: cell viability (tox21-car-agonist-p1)
[6] = system: cell viability (tox21-car-antagonist-p1)
[7] = curve rank −9 to 9, 0 = inactive, ref NCATS Tox21 public data browser

CC(C)(C)NCC(O)COc1cccc2c1CCC(=O)N2 (stereo not drawn) [Carteolol hydrochloride]
0: tox21-ap1-agonist-p1-viability (curve rank) [1] | tox21-ar-mda-kb2-luc-agonist-p3-viability (curve rank) [2] | tox21-ar-mda-kb2-luc-antagonist-p2-viability (curve rank) [3] | tox21-are-bla-p1-viability (curve rank) [4] | tox21-car-agonist-p1-viability (curve rank) [5] | tox21-car-antagonist-p1-viability (curve rank) [6]

O=C(CCNNC(=O)c1ccncc1)NCc1ccccc1 [Nialamide]
0: tox21-ap1-agonist-p1-viability (curve rank) [1] | tox21-ar-mda-kb2-luc-agonist-p3-viability (curve rank) [2] | tox21-ar-mda-kb2-luc-antagonist-p2-viability (curve rank) [3] | tox21-are-bla-p1-viability (curve rank) [4] | tox21-car-agonist-p1-viability (curve rank) [5] | tox21-car-antagonist-p1-viability (curve rank) [6]

CCCCC1(COC(=O)CCC(=O)O)C(=O)N(c2ccccc2)N(c2ccccc2)C1=O [Suxibuzone]
0: tox21-ap1-agonist-p1-viability (curve rank) [1] | tox21-ar-mda-kb2-luc-agonist-p3-viability (curve rank) [2] | tox21-ar-mda-kb2-luc-antagonist-p2-viability (curve rank) [3] | tox21-are-bla-p1-viability (curve rank) [4] | tox21-car-agonist-p1-viability (curve rank) [5] | tox21-car-antagonist-p1-viability (curve rank) [6]

CC(C)(C)C(=O)OCOC(=O)[C@@H]1N2C(=O)[C@@H](NC(=O)[C@H](N)c3ccccc3)[C@H]2SC1(C)C [Pivampicillin]
0: tox21-ap1-agonist-p1-viability (curve rank) [1] | tox21-ar-mda-kb2-luc-agonist-p3-viability (curve rank) [2] | tox21-ar-mda-kb2-luc-antagonist-p2-viability (curve rank) [3] | tox21-are-bla-p1-viability (curve rank) [4] | tox21-car-agonist-p1-viability (curve rank) [5] | tox21-car-antagonist-p1-viability (curve rank) [6]

C[C@H](O)C(=O)Nc1c(I)c(C(=O)NC(CO)CO)c(I)c(C(=O)NC(CO)CO)c1I [Iopamidol]
0: tox21-ap1-agonist-p1-viability (curve rank) [1] | tox21-ar-mda-kb2-luc-agonist-p3-viability (curve rank) [2] | tox21-ar-mda-kb2-luc-antagonist-p2-viability (curve rank) [3] | tox21-are-bla-p1-viability (curve rank) [4] | tox21-car-agonist-p1-viability (curve rank) [5] | tox21-car-antagonist-p1-viability (curve rank) [6]

CC1Cc2ccccc2N1NC(=O)c1ccc(Cl)c(S(N)(=O)=O)c1 (stereo not drawn) [Indapamide]
0: tox21-ap1-agonist-p1-viability (curve rank) [1] | tox21-ar-mda-kb2-luc-agonist-p3-viability (curve rank) [2] | tox21-ar-mda-kb2-luc-antagonist-p2-viability (curve rank) [3] | tox21-are-bla-p1-viability (curve rank) [4] | tox21-car-agonist-p1-viability (curve rank) [5] | tox21-car-antagonist-p1-viability (curve rank) [6]

COc1cc(-c2ccc(=O)[nH]n2)ccc1OC(F)F [Zardaverine]
0: tox21-ap1-agonist-p1-viability (curve rank) [1, 7] | tox21-ar-mda-kb2-luc-agonist-p3-viability (curve rank) [2, 7] | tox21-ar-mda-kb2-luc-antagonist-p2-viability (curve rank) [3, 7] | tox21-are-bla-p1-viability (curve rank) [4, 7] | tox21-car-agonist-p1-viability (curve rank) [5, 7] | tox21-car-antagonist-p1-viability (curve rank) [6, 7]

Cc1ccc(S(=O)(=O)NC(=O)NN2CC3CCCC3C2)cc1 (stereo not drawn) [Gliclazide]
0: tox21-ap1-agonist-p1-viability (curve rank) [1] | tox21-ar-mda-kb2-luc-agonist-p3-viability (curve rank) [2] | tox21-ar-mda-kb2-luc-antagonist-p2-viability (curve rank) [3] | tox21-are-bla-p1-viability (curve rank) [4] | tox21-car-agonist-p1-viability (curve rank) [5] | tox21-car-antagonist-p1-viability (curve rank) [6]

O=C(Cn1ccnc1[N+](=O)[O-])NCCO [Etandazole]
0: tox21-ap1-agonist-p1-viability (curve rank) [1] | tox21-ar-mda-kb2-luc-agonist-p3-viability (curve rank) [2] | tox21-ar-mda-kb2-luc-antagonist-p2-viability (curve rank) [3] | tox21-are-bla-p1-viability (curve rank) [4] | tox21-car-agonist-p1-viability (curve rank) [5] | tox21-car-antagonist-p1-viability (curve rank) [6]

CC(=O)Nc1cc([As](=O)(O)O)ccc1O [Acetarsol]
0: tox21-ap1-agonist-p1-viability (curve rank) [1, 7] | tox21-ar-mda-kb2-luc-agonist-p3-viability (curve rank) [2, 7] | tox21-ar-mda-kb2-luc-antagonist-p2-viability (curve rank) [3, 7] | tox21-are-bla-p1-viability (curve rank) [4, 7] | tox21-car-agonist-p1-viability (curve rank) [5, 7] | tox21-car-antagonist-p1-viability (curve rank) [6, 7]

CC(C(=O)O)c1ccc(C(=O)c2ccccc2)s1 (stereo not drawn) [Tiaprofenic acid]
0: tox21-ap1-agonist-p1-viability (curve rank) [1] | tox21-ar-mda-kb2-luc-agonist-p3-viability (curve rank) [2] | tox21-ar-mda-kb2-luc-antagonist-p2-viability (curve rank) [3] | tox21-are-bla-p1-viability (curve rank) [4] | tox21-car-agonist-p1-viability (curve rank) [5] | tox21-car-antagonist-p1-viability (curve rank) [6]

CCOC(=O)c1cncn1[C@H](C)c1ccccc1 [Etomidate]
0: tox21-ap1-agonist-p1-viability (curve rank) [1, 7] | tox21-ar-mda-kb2-luc-agonist-p3-viability (curve rank) [2, 7] | tox21-ar-mda-kb2-luc-antagonist-p2-viability (curve rank) [3, 7] | tox21-are-bla-p1-viability (curve rank) [4, 7] | tox21-car-agonist-p1-viability (curve rank) [5, 7] | tox21-car-antagonist-p1-viability (curve rank) [6, 7]

Oc1ccc(Cl)cc1 [4-Chlorophenol]
0: tox21-ap1-agonist-p1-viability (curve rank) [1, 7] | tox21-ar-mda-kb2-luc-agonist-p3-viability (curve rank) [2, 7] | tox21-ar-mda-kb2-luc-antagonist-p2-viability (curve rank) [3, 7] | tox21-are-bla-p1-viability (curve rank) [4, 7] | tox21-car-agonist-p1-viability (curve rank) [5, 7] | tox21-car-antagonist-p1-viability (curve rank) [6, 7]

NC(=O)OCC(COC(N)=O)c1ccccc1 [Felbamate]
0: tox21-ap1-agonist-p1-viability (curve rank) [1, 7] | tox21-ar-mda-kb2-luc-agonist-p3-viability (curve rank) [2, 7] | tox21-ar-mda-kb2-luc-antagonist-p2-viability (curve rank) [3, 7] | tox21-are-bla-p1-viability (curve rank) [4, 7] | tox21-car-agonist-p1-viability (curve rank) [5, 7] | tox21-car-antagonist-p1-viability (curve rank) [6, 7]

NS(=O)(=O)c1cc2c(cc1Cl)N=C(CSCc1ccccc1)NS2(=O)=O [Benzthiazide]
0: tox21-ap1-agonist-p1-viability (curve rank) [1] | tox21-ar-mda-kb2-luc-agonist-p3-viability (curve rank) [2] | tox21-ar-mda-kb2-luc-antagonist-p2-viability (curve rank) [3] | tox21-are-bla-p1-viability (curve rank) [4] | tox21-car-agonist-p1-viability (curve rank) [5] | tox21-car-antagonist-p1-viability (curve rank) [6]

Cc1ncc([N+](=O)[O-])n1CC(C)O (stereo not drawn) [Secnidazole]
0: tox21-ap1-agonist-p1-viability (curve rank) [1, 7] | tox21-ar-mda-kb2-luc-agonist-p3-viability (curve rank) [2, 7] | tox21-ar-mda-kb2-luc-antagonist-p2-viability (curve rank) [3, 7] | tox21-are-bla-p1-viability (curve rank) [4, 7] | tox21-car-agonist-p1-viability (curve rank) [5, 7] | tox21-car-antagonist-p1-viability (curve rank) [6, 7]

CCN(CC)CC1CCCCN1CC(=O)N1c2ccccc2C(=O)Nc2cccnc21 (stereo not drawn) [AF-DX 116]
0: tox21-ap1-agonist-p1-viability (curve rank) [1] | tox21-ar-mda-kb2-luc-agonist-p3-viability (curve rank) [2] | tox21-ar-mda-kb2-luc-antagonist-p2-viability (curve rank) [3] | tox21-are-bla-p1-viability (curve rank) [4] | tox21-car-agonist-p1-viability (curve rank) [5] | tox21-car-antagonist-p1-viability (curve rank) [6]
